This is an account of results in patent US10087192B2, “2-(het)aryl-substituted fused bicyclic heterocycle derivatives as pesticides” (BAYER CROPSCIENCE AKTIENGESELLSCHSAFT, priority 2015, dated 2018).

What all share (type): in vivo
One assay has as its system Spodoptera frugiperda. Briefly: Spodoptera frugiperda spray test (maize leaf discs). Conditions: after 7 days, caterpillars on maize leaf discs. The method, then: Spodoptera frugiperda—Spray Test Solvent: 78.0 parts by weight of acetone • • 1.5 parts by weight of dimethylformamide Emulsifier: alkylaryl polyglycol ether […] To produce further test concentrations, the preparation is diluted with emulsifier-containing water. Leaf discs of maize (Zea mays) are sprayed with an active compound preparation of the desired concentration and, after drying, populated with caterpillars of the armyworm (Spodoptera frugiperda).

In the next assay the test system is Phaedon cochleariae. Briefly: Phaedon cochleariae spray test. Conditions: after 7 days, larvae on Chinese cabbage leaf discs. The method, then: Phaedon cochleariae—Spray Test
Solvent: 78.0 parts by weight of acetone • • 1.5 parts by weight of dimethylformamide
Emulsifier: alkylaryl polyglycol ether
To produce a suitable preparation of active compound, 1 part by weight of active compound is dissolved using the stated parts by weight of solvent and made up with water containing an emulsifier concentration of 1000 ppm until the desired concentration is attained. To produce further test concentrations, the preparation is diluted with emulsifier-containing water.
After 7 days, the efficacy in % is determined. 100% means that all the beetle larvae have been killed; 0% means that no beetle larvae have been killed.

Another assay relates to Lucilia cuprina. The assay is described as follows: Lucilia cuprina test. Conditions: 100 ppm, after 2 days, L1 larvae. Here is the method:
Solvent: dimethyl sulphoxide
To produce a suitable preparation of active compound, 10 mg of active compound are mixed with 0.5 ml of dimethyl sulphoxide, and the concentrate is diluted with water to the desired concentration.
About 20 L1 larvae of the Australian sheep blowfly (Lucilia cuprina) are transferred into a test vessel containing minced horsemeat and the active compound preparation of the desired concentration.
After 2 days, the kill in % is determined. 100% means that all the larvae have been killed; 0% means that no larvae have been killed.

The next assay deals with Myzus persicae. The assay is described as follows: Myzus persicae spray test (Chinese cabbage leaf discs). Conditions: after 6 days. Here is the method:
Myzus persicae—Spray Test Solvent: 78 parts by weight of acetone • • 1.5 parts by weight of dimethylformamide Emulsifier: alkylaryl polyglycol ether […] To produce further test concentrations, the preparation is diluted with emulsifier-containing water. Discs of Chinese cabbage leaves (Brassica pekinensis) infested by all stages of the green peach aphid (Myzus persicae) are sprayed with an active compound preparation of the desired concentration.

The test system of another assay is Ctenocephalides felis. The assay is described as follows: Ctenocephalides felis oral test. Particulars: 100 ppm in citrated cattle blood, after 2 days. From the text: Ctenocephalides felis—Oral Test Solvent: dimethyl sulphoxide […] Dilution with citrated cattle blood gives the desired concentration. About 20 unfed adult cat fleas (Ctenocephalides felis) are placed into a chamber which is closed at the top and bottom with gauze. A metal cylinder whose bottom end is closed with parafilm is placed onto the chamber. The cylinder contains the blood/active compound preparation, which can be imbibed by the fleas through the parafilm membrane.

In the case of `CCS(=O)(=O)c1ccc(-c2ccn[nH]2)nc1-c1nc2cc(C(F)(F)F)ncc2n1C` [Example 75], the efficacy in the assay on Spodoptera frugiperda (500 g/ha) and in the assay on Phaedon cochleariae (500 g/ha) was 100% throughout.

For `CCS(=O)(=O)c1ccc(-c2cn[nH]c2)nc1-c1nc2cc(C(F)(F)F)ncc2n1C` [Example 84], the efficacy amounted to 100% in the assay on Spodoptera frugiperda (500 g/ha) and 83% in the assay on Phaedon cochleariae (500 g/ha).

For the compound `CCS(=O)(=O)c1ccc(-n2ccc(Cl)n2)nc1-c1nc2cc(C(F)(F)F)ncc2n1C` [Example 9], the efficacy in the assay on Spodoptera frugiperda (100 g/ha) amounted to 83%; in the assay with Phaedon cochleariae (500 g/ha) it was 100%.

`CCS(=O)(=O)c1ccc(-n2ccc(COC)n2)nc1-c1nc2cc(C(F)(F)F)ncc2n1C` [Example 10]: the “efficacy (kill)” value in the assay with Lucilia cuprina came out at 100%. The same compound gave an efficacy in the assay on Myzus persicae (500 g/ha) of 90%.

As to `CCS(=O)(=O)c1ccc(-n2nnn(C)c2=O)nc1-c1nc2cc(C(F)(F)F)ncc2n1C` [Example 46], the efficacy with Spodoptera frugiperda (500 g/ha) and with Phaedon cochleariae (500 g/ha) was 100% throughout.

For `CCS(=O)(=O)c1ccc(-c2cc(Cl)cs2)nc1-c1nc2cc(C(F)(F)F)ncc2n1C` [Example 77], the efficacy with Spodoptera frugiperda (500 g/ha) was determined as 100%.

For `CCS(=O)(=O)c1ccc(-n2cc(F)cn2)nc1-c1nc2cc(C(F)(F)F)ncc2n1C` [Example 28], the “efficacy (kill)” value with Lucilia cuprina is 100%; in the assay on Ctenocephalides felis it was 98%. Besides, the efficacy in the assay with Spodoptera frugiperda (100 g/ha) and in the assay on Phaedon cochleariae (100 g/ha) was 100% in each case.

Turning to `CCS(=O)(=O)c1ccc(-c2cccnc2)nc1-c1nc2cc(C(F)(F)F)ncc2n1C` [Example 72], the results for the efficacy in the assay with Myzus persicae (500 g/ha) and with Phaedon cochleariae (100 g/ha) were 90% and 83%, respectively.

Regarding `CCS(=O)(=O)c1ccc(-n2ccc(CSC)n2)nc1-c1nc2cc(C(F)(F)F)ncc2n1C` [Example 47], the efficacy with Phaedon cochleariae (500 g/ha) was found to be 100%.

Regarding `CCS(=O)(=O)c1ccc(-n2ccc(NC(C)=O)n2)nc1-c1nc2cc(C(F)(F)F)ncc2n1C` [Example 23], the “efficacy (kill)” value in the assay on Lucilia cuprina was determined as 100%. Further, the efficacy in the assay with Myzus persicae (500 g/ha) was 90%; in the assay on Phaedon cochleariae (500 g/ha), 100%.

In the case of `CCS(=O)(=O)c1ccc(-n2ccc(SC)n2)nc1-c1nc2cc(C(F)(F)F)ncc2n1C` [Example 29], the results for the efficacy with Myzus persicae (500 g/ha) and in the assay on Phaedon cochleariae (500 g/ha) were 90% and 100%, respectively.

For the compound `CCS(=O)(=O)c1ccc(-n2cc(C(=O)NC)cn2)nc1-c1nc2cc(C(F)(F)F)ncc2n1C` [Example 4], the “efficacy (kill)” value in the assay with Lucilia cuprina and with Ctenocephalides felis was 100% throughout. Moreover, the efficacy was 90% in the assay on Myzus persicae (500 g/ha) and 100% in the assay with Phaedon cochleariae (500 g/ha).

Turning to `CCS(=O)(=O)c1ccc(-c2cc[nH]c2)nc1-c1nc2cc(C(F)(F)F)ncc2n1C` [Example 73], the results for the efficacy in the assay on Myzus persicae (500 g/ha) and in the assay on Phaedon cochleariae (500 g/ha) were 90% and 100%, respectively.

On to `CCS(=O)(=O)c1ccc(-n2nnn(CC(F)(F)C(F)(F)F)c2=O)nc1-c1nc2cc(C(F)(F)F)ncc2n1C` [Example 56], for which the efficacy with Myzus persicae (500 g/ha), in the assay on Spodoptera frugiperda (500 g/ha) and with Phaedon cochleariae (500 g/ha) was 100% throughout.

Consider `CCS(=O)(=O)c1ccc(N2CCSC2)nc1-c1nc2cc(C(F)(F)F)ncc2n1C` [Example 50], for which the efficacy in the assay on Myzus persicae (500 g/ha) and in the assay with Phaedon cochleariae (500 g/ha) was 100% throughout.

In the case of `CCS(=O)(=O)c1ccc(-n2ccc(C3CC3)n2)nc1-c1nc2cc(C(F)(F)F)ncc2n1C` [Example 53], the “efficacy (kill)” value in the assay with Lucilia cuprina and in the assay with Ctenocephalides felis was 100% throughout. The values for the efficacy in the assay with Myzus persicae (500 g/ha), in the assay on Spodoptera frugiperda (500 g/ha) and with Phaedon cochleariae (500 g/ha) were 90%, 100% and 100%, respectively.

Take `CCS(=O)(=O)c1ccc(-n2cnc(C(F)(F)F)c2)nc1-c1nc2cc(C(F)(F)F)ncc2n1C` [Example 27]: in the assay on Ctenocephalides felis, the “efficacy (kill)” value is reported as 95%. In addition, in the assay with Phaedon cochleariae (500 g/ha), the efficacy is on record as 100%.

On to `CCS(=O)(=O)c1ccc(-n2cc(CS(C)(=O)=O)cn2)nc1-c1nc2cc(C(F)(F)F)ncc2n1C` [Example 60], for which the “efficacy (kill)” value in the assay with Lucilia cuprina is on record as 95%; with Ctenocephalides felis, 100%. This compound showed an efficacy in the assay with Phaedon cochleariae (500 g/ha) of 100%.

Turning to `CCS(=O)(=O)c1ccc(-n2cccn2)nc1-c1nc2cc(C(F)(F)F)ncc2n1C` [Example 21], the efficacy in the assay on Spodoptera frugiperda (100 g/ha) worked out at 100%; in the assay on Phaedon cochleariae (20 g/ha), 83%.

As to `CCS(=O)(=O)c1ccc(-n2c(SC)nn(C)c2=O)nc1-c1nc2cc(C(F)(F)F)ncc2n1C` [Example 58], the efficacy in the assay on Phaedon cochleariae (500 g/ha) is on record as 83%.

Regarding `CCS(=O)(=O)c1ccc(-n2nnn(CC(F)(F)F)c2=O)nc1-c1nc2cc(C(F)(F)F)ncc2n1C` [Example 52], the efficacy with Myzus persicae (500 g/ha) is given as 90%; with Phaedon cochleariae (500 g/ha), 100%.

Take `CCS(=O)(=O)c1ccc(-n2cc(SC)cn2)nc1-c1nc2cc(C(F)(F)F)ncc2n1C` [Example 16]: the efficacy in the assay on Myzus persicae (500 g/ha), in the assay on Spodoptera frugiperda (500 g/ha) and with Phaedon cochleariae (500 g/ha) was 100% throughout.

As to `CCS(=O)(=O)c1ccc(-n2nc(C)[nH]c2=O)nc1-c1nc2cc(C(F)(F)F)ncc2n1C` [Example 48], the values for the efficacy in the assay on Spodoptera frugiperda (500 g/ha) and with Phaedon cochleariae (500 g/ha) were 100% and 83%, respectively.

Turning to `CCS(=O)(=O)c1ccc(-n2cc(Cl)cn2)nc1-c1nc2cc(C(F)(F)F)ncc2n1C` [Example 6], the “efficacy (kill)” value in the assay with Ctenocephalides felis is 95%. Moreover, the efficacy in the assay on Spodoptera frugiperda (100 g/ha) is given as 100%.

Turning to `CCS(=O)(=O)c1ccc(N2CCSC2=O)nc1-c1nc2cc(C(F)(F)F)ncc2n1C` [Example 42], the results for the efficacy in the assay on Myzus persicae (500 g/ha) and with Phaedon cochleariae (500 g/ha) were 90% and 100%, respectively.

Take `CCS(=O)(=O)c1ccc(-c2ccccn2)nc1-c1nc2cc(C(F)(F)F)ncc2n1C` [Example 71]: the efficacy in the assay with Spodoptera frugiperda (500 g/ha) and in the assay on Phaedon cochleariae (500 g/ha) was 100% in each case.

Regarding `CCS(=O)(=O)c1ccc(-n2ccn(C)c2=O)nc1-c1nc2cc(C(F)(F)F)ncc2n1C` [Example 39], the efficacy in the assay on Myzus persicae (20 g/ha) was 90%; in the assay with Phaedon cochleariae (500 g/ha), 100%.

`CCS(=O)(=O)c1ccc(-c2sccc2Cl)nc1-c1nc2cc(C(F)(F)F)ncc2n1C` [Example 85] yielded an efficacy with Spodoptera frugiperda (500 g/ha) of 100%.

The compound `CCS(=O)(=O)c1ccc(-n2cc(CSC)cn2)nc1-c1nc2cc(C(F)(F)F)ncc2n1C` [Example 38] gave an efficacy in the assay on Phaedon cochleariae (500 g/ha) of 100%.

With `CCS(=O)(=O)c1ccc(-n2cnc(SC)n2)nc1-c1nc2cc(C(F)(F)F)ncc2n1C` [Example 15], the figures for the efficacy with Myzus persicae (500 g/ha), in the assay on Spodoptera frugiperda (500 g/ha) and with Phaedon cochleariae (500 g/ha) were 90%, 83% and 100%, respectively.

`CCS(=O)(=O)c1ccc(-n2ccc(C(=O)NC)n2)nc1-c1nc2cc(C(F)(F)F)ncc2n1C` [Example 12]: in the assay on Myzus persicae (500 g/ha), the efficacy came to 90%.

For the compound `CCS(=O)(=O)c1ccc(-n2nnc(C(F)(F)F)n2)nc1-c1nc2cc(C(F)(F)F)ncc2n1C` [Example 55], the efficacy is 90% in the assay with Myzus persicae (500 g/ha), 100% in the assay on Spodoptera frugiperda (500 g/ha) and 100% with Phaedon cochleariae (500 g/ha).

Turning to `CCS(=O)(=O)c1ccc(-n2ccc(S(C)(=O)=O)n2)nc1-c1nc2cc(C(F)(F)F)ncc2n1C` [Example 35], the “efficacy (kill)” value with Lucilia cuprina and in the assay with Ctenocephalides felis was 100% each time. Besides, the efficacy was determined as 90% with Myzus persicae (500 g/ha) and 100% with Phaedon cochleariae (500 g/ha).

In the case of `CCS(=O)(=O)c1ccc(-n2ccc(SC(F)(F)F)c2)nc1-c1nc2cc(C(F)(F)F)ncc2n1C` [Example 2], the “efficacy (kill)” value in the assay on Lucilia cuprina and in the assay on Ctenocephalides felis was 100% in each case. The results for the efficacy in the assay with Myzus persicae (500 g/ha) and in the assay with Phaedon cochleariae (500 g/ha) were 90% and 100%, respectively.

For the compound `CCS(=O)(=O)c1ccc(-c2cnn(C)c2)nc1-c1nc2cc(C(F)(F)F)ncc2n1C` [Example 83], the efficacy in the assay with Myzus persicae (500 g/ha) is 90%; in the assay with Spodoptera frugiperda (500 g/ha) it was 100%; in the assay with Phaedon cochleariae (500 g/ha), 100%.

For the compound `CCS(=O)(=O)c1ccc(-n2cc(S(C)(=O)=O)cn2)nc1-c1nc2cc(C(F)(F)F)ncc2n1C` [Example 3], the “efficacy (kill)” value with Lucilia cuprina and with Ctenocephalides felis was 100% throughout. Also, the efficacy in the assay on Myzus persicae (500 g/ha) was found to be 90%; with Phaedon cochleariae (500 g/ha), 100%.
